Experimental data from patent US20220062205A1, “TREATMENT OF GASTROINTESTINAL DISORDERS AND SYMPTOMS THEREOF” (Indiana University Research and Technology Corporation, priority 2018, published 2022).

System: Winnie mice
Test: Clinical symptoms (body weight, rectal prolapse, faecal water content) in Winnie mice treated with APX3330
Assay type: in vivo, mouse
Details: for Daily Body Weight: mean, SEM in line below, in % (unit assumed)
Excerpt: In this Example, the murine model of IBD named Winnie, in which spontaneous chronic colitis results from a primary intestinal epithelial defect conferred by a mutation in the Muc2 mucin gene, was used to analyze the symptoms of IBD and the effects of treatment with APX3330. Although other models of chronic intestinal inflammation have been developed (e.g., IL-10 knockout), most of them are environment-dependent (attain inflammation only in the presence of pathogenic bacteria). Further, unlike other models, mild spontaneous inflammation in the colorectum is developed in all Winnie mice by 6 weeks of age (young adults) in pathogen-free conditions; it progresses over time and results in severe colitis by the age of 12-16 weeks. This is due to a thinner mucus layer allowing increased intestinal permeability and thus enhanced susceptibility to luminal toxins normally within the gut. In humans, Muc2 production and secretion are reduced leading to a thinner mucosal layer and increased intestinal permeability. Winnie mice (Win/Win) display symptoms of diarrhoea (not watery), ulcerations, rectal bleeding and pain at the acute stages of colitis similar to those in human IBD. The Winnie murine model of chronic colitis (12 w.o.; 15-35 g; n=24) were attained from Victoria University Werribee Animal Facility (Melbourne, Australia) to determine the effectiveness of APX3330 on mechanisms of oxidative stress. Treated Winnie mice were paralleled to a control C57BL/6 group (12 w.o.; 20-30 g; n=12) inclusive of female and male mice. All mice were acclimatized for 3 days prior to receiving in vivo intraperitoneal (IP) injections. All mice were housed at Western Centre for Health, Research and Education (WCHRE, Melbourne, Victoria, Australia) in a temperature-controlled environment with a 12-hour day/night cycle. All animals had free access to food and water with […] efforts made to minimize any suffering. All experimental procedures in this Example were conducted in agreement to the Australian National Health and Medical Research Council (NHMRC) guidelines and approved by Victorian University Animal Experimentation Ethic Committee (AEEC) under animal ethics AEETH 13/001 and AEC 17/016. The small molecular APE1/Ref-1 antagonist; APX3330, was administered via IP injections in Winnie mice at a dose of 25 mg/kg (30 G needle, max volume 200 μl) dissolved in Cremphore (2%) (Sigma-Aldrich): Ethanol (2%) in sterile water (96%). Mice received alternating IP injections twice a day with 12-hour intervals, over the course of two weeks during predominate intestinal inflammation. Winnie-sham treated mice received vehicle injections excluding APX3330 drugs. All mice were monitored, weighed and faecal pellets were collected over the course of treatment.

CCCCCCCCCC(=CC1=C(C)C(=O)C(OC)=C(OC)C1=O)C(=O)O [APX3330] was tested, and the “Daily Body Weight” value (Day 1, relative to initial weight, 25 mg/kg IP twice a day) was 102, the “Daily Body Weight” value (Day 2, relative to initial weight, 25 mg/kg IP twice a day) was 100 and the “Daily Body Weight” value (Day 3, relative to initial weight, 25 mg/kg IP twice a day) was 101. The “Daily Body Weight” value (Day 4, relative to initial weight, 25 mg/kg IP twice a day) was 101, the “Daily Body Weight” value (Day 5, relative to initial weight, 25 mg/kg IP twice a day) was 100 and the “Daily Body Weight” value (Day 6, relative to initial weight, 25 mg/kg IP twice a day) was 100. The “Daily Body Weight” value (Day 7, relative to initial weight, 25 mg/kg IP twice a day) was 98, the “Daily Body Weight” value (Day 8, relative to initial weight, 25 mg/kg IP twice a day) was 98 and the “Daily Body Weight” value (Day 9, relative to initial weight, 25 mg/kg IP twice a day) was 98. For the same compound, the “Daily Body Weight” value (Day 10, relative to initial weight, 25 mg/kg IP twice a day) was 99, the “Daily Body Weight” value (Day 11, relative to initial weight, 25 mg/kg IP twice a day) was 99 and the “Daily Body Weight” value (Day 12, relative to initial weight, 25 mg/kg IP twice a day) was 99. The “Daily Body Weight” value (Day 13, relative to initial weight, 25 mg/kg IP twice a day) was 99, the “rectal prolapse, edema and bleeding” value (by day 14 of treatments, 25 mg/kg IP twice a day) was “reduced” and the faecal water content (day 14, 25 mg/kg IP twice a day, mean±SEM, n=7) was 73.2±2.1%.
